Columns and labels:
Cytochrome P450 2C9 = Cytochrome P450 2C9 (Homo sapiens, UniProt P11712); test: (§1) Inhibition Assay: Six test compound concentrations (0.1, 0.25, 1, 2.5, 10, 25 μM in DMSO; final DMSO concentration=[…]) are incubated with human liver microsomes (1 mg/mL) and NADPH (1 mM) in the presence of the probe substrate tolbutamide (120 μM) for 60 min at 37° C. The selective CYP2C9 inhibitor, sulphaphenazole, is screened alongside the test compounds as a positive control.
Cytochrome P450 1A1 = biological target: T1, Cytochrome P450 1A1 (Homo sapiens, UniProt P04798); test: (§2) Inhibition Assay: Six test compound concentrations (0.1, 0.25, 1, 2.5, 10, 25 μM in DMSO; final DMSO concentration=0.3%) are incubated with human liver microsomes ([…]) and NADPH (1 mM) in the presence of the probe substrate ethoxyresorufin (0.5 μM) for 5 min at 37° C. The selective CYP1A inhibitor, alpha-naphthoflavone, is screened alongside the test compounds as a positive control.
T1 sequence (P04798 whole entry): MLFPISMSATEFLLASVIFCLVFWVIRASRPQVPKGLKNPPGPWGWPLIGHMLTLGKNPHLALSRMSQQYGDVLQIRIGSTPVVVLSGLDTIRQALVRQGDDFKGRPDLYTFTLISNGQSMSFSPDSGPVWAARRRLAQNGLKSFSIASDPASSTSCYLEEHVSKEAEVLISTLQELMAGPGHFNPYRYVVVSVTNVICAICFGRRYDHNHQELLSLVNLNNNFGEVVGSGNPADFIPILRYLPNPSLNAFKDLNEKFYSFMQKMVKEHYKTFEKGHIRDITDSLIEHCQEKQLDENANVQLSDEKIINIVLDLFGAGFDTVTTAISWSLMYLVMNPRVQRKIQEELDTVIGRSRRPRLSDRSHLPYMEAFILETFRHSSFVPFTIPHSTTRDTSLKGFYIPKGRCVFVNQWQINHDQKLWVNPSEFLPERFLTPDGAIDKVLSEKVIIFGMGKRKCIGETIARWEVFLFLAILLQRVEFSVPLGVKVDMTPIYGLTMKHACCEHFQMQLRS

Cytochrome P450 2B6 = biological target: T2, Cytochrome P450 2B6 (Homo sapiens, UniProt P20813); test: (§3) Inhibition Assay: Six test compound concentrations (0.1, 0.25, 1, 2.5, 10, 25 μM in DMSO; final DMSO concentration=0.3%) are incubated with human liver microsomes (0.1 mg/mL) and NADPH (1 mM) in the presence of the probe substrate bupropion (110 μM) for 5 min at 37° C. The selective CYP2B6 inhibitor, ticlopidine, is screened alongside the test compounds as a positive control.
T2 sequence (P20813 whole entry): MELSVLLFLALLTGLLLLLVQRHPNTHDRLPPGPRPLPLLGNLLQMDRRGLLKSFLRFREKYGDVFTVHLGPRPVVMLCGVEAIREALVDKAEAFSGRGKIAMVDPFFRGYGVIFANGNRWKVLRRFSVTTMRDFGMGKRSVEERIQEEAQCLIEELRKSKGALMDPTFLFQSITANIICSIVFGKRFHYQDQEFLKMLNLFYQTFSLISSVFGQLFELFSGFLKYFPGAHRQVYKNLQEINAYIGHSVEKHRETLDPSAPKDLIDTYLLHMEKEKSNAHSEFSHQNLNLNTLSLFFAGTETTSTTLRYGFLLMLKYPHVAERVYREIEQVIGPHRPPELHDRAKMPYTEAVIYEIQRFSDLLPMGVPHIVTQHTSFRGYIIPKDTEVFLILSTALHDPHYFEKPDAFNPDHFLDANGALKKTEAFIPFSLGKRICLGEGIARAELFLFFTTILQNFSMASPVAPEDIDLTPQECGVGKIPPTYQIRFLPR

Cytochrome P450 2C19 = Cytochrome P450 2C19 (Homo sapiens, UniProt P33261); test: as §1, with “microsomes (0.5” for “microsomes (1”, “substrate mephenytoin (25” for “substrate tolbutamide (120”, “selective CYP2C19” for “selective CYP2C9”, “inhibitor, tranylcypromine,” for “inhibitor, sulphaphenazole,”
Cytochrome P450 2C8 = biological target: T3, Cytochrome P450 2C8 (Homo sapiens, UniProt P10632); test: as §2, with “substrate paclitaxel (7.5” for “substrate ethoxyresorufin (0.5”, “for 30” for “for 5”, “selective CYP2C8” for “selective CYP1A”, “inhibitor, montelukast,” for “inhibitor, alpha-naphthoflavone,”
T3 sequence (P10632 whole entry): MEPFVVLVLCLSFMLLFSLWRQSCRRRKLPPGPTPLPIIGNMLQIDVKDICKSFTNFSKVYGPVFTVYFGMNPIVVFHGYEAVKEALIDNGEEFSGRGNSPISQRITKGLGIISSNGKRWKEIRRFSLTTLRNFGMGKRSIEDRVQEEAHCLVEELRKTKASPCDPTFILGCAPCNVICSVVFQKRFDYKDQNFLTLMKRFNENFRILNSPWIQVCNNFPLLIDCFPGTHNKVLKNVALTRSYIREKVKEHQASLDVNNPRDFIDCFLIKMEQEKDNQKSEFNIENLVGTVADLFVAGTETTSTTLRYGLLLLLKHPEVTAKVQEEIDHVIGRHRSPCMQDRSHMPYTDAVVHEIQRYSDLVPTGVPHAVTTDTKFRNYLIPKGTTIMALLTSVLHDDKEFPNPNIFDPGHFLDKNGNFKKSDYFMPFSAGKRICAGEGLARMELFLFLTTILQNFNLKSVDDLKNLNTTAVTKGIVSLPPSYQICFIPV

Cytochrome P450 3A4 [1] = biological target: T4, Cytochrome P450 3A4 (Homo sapiens, UniProt P08684); test: as §3, with “concentration=0.26%)” for “concentration=0.3%)”, “midazolam ([…])” for “bupropion (110 μM)”, “CYP3A4” for “CYP2B6”, “ketoconazole,” for “ticlopidine,”
Cytochrome P450 3A4 [2] = biological target: T4, Cytochrome P450 3A4; test: Inhibition Assay: Six test compound concentrations (0.1, 0.25, 1, 2.5, 10, 25 μM in DMSO; final DMSO concentration=0.275%) are incubated with human liver microsomes (0.5 mg/mL) and NADPH (1 mM) in the presence of the probe substrate testosterone (50 μM) for 5 min at 37° C. The selective CYP3A4 inhibitor, ketoconazole, is screened alongside the test compounds as a positive control.

T4 sequence (P08684 whole entry): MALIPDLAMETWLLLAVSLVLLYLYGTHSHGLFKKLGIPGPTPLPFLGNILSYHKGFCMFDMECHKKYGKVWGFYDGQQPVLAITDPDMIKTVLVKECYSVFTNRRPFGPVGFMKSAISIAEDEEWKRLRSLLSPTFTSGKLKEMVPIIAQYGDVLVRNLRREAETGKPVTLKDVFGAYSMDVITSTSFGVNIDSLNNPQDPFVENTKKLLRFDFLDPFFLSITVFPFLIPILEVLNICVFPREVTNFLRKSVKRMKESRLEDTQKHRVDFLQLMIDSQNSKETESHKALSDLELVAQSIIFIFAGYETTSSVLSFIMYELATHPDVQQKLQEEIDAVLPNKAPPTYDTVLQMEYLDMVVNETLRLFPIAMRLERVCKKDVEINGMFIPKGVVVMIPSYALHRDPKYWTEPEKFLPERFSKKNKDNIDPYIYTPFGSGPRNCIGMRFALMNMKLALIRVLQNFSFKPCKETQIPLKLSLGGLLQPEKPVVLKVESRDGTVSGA
Cytochrome P450 2C9, sequence (P11712 whole entry): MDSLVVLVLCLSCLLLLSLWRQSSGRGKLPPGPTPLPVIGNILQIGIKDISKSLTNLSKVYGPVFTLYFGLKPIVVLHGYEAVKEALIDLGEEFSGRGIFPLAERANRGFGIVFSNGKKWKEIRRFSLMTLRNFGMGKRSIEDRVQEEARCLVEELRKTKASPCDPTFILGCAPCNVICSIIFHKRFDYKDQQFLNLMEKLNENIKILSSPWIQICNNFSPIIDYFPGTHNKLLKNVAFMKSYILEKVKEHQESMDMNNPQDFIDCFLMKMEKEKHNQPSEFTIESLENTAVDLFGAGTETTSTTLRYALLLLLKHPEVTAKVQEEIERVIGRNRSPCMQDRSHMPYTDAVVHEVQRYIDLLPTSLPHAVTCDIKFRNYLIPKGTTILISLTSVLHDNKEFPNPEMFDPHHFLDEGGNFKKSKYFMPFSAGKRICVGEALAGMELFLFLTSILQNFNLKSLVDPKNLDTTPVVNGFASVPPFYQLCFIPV
Cytochrome P450 2C19, sequence (P33261 whole entry): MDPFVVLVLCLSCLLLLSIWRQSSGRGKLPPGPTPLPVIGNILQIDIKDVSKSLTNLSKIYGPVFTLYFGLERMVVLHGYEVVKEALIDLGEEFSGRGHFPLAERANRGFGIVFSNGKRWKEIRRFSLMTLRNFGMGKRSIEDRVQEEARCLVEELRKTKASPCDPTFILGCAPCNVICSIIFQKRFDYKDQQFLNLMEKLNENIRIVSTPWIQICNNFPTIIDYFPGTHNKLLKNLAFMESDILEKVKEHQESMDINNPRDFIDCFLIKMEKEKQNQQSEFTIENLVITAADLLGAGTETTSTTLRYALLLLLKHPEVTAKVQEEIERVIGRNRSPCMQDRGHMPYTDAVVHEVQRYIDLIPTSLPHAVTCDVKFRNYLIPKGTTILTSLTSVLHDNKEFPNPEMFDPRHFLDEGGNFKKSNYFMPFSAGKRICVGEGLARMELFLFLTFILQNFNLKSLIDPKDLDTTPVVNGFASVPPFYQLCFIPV

Structure (SMILES): CCCCNC(=O)NS(=O)(=O)c1ccc(CO)cc1
- IC50 (Cytochrome P450 2C9): > 25 µM

Structure (SMILES): O=c1ccc2nc3ccc(O)cc3oc-2c1
- IC50 (Cytochrome P450 1A1): > 25 µM

Structure (SMILES): CC(NC(C)(C)CO)C(=O)c1cccc(Cl)c1 (configuration not stated)
- IC50 (Cytochrome P450 2B6): 19.2 µM

Structure (SMILES): CCC1(c2ccc(O)cc2)NC(=O)N(C)C1=O (configuration not stated)
- IC50 (Cytochrome P450 2C19): > 25 µM

Structure (SMILES): CC(=O)O[C@H]1C(=O)[C@@]2(C)[C@H]([C@H](OC(=O)c3ccccc3)[C@]3(O)C[C@H](OC(=O)[C@H](O)[C@@H](NC(=O)c4ccccc4)c4ccccc4)C(C)=C1C3(C)C)[C@]1(OC(C)=O)CO[C@@H]1[C@@H](O)[C@@H]2O
- IC50 (Cytochrome P450 2C8): 21.6 µM

Structure (SMILES): OCc1ncc2n1-c1ccc(Cl)cc1C(c1ccccc1F)=NC2 [ALPHA-HYDROXY-MIDAZOLAM]
- IC50 (Cytochrome P450 3A4 [1]): 2700 nM

Structure (SMILES): C[C@]12CC[C@H]3[C@@H](C[C@@H](O)C4=CC(=O)CC[C@@]43C)[C@@H]1CC[C@@H]2O [6beta-hydroxytestosterone]
- IC50 (Cytochrome P450 3A4 [2]): 10.5 µM

— ChEMBL document CHEMBL3886683, “Apoptosis signal-regulating kinase inhibitor” (2016)
